A value given as a limit tells only on which side of the number the result lay.

The test system of the test is IL-13 induced pSTAT6 in BEAS-2B human cell line. Put plainly: Inhibition of IL-13 induced pSTAT6 in BEAS. The format is cell-based. Particulars: IL-13 induced pSTAT6, BEAS-2B cells, ELISA. The protocol:
BEAS-2B human cell line was seeded (100.000 cells/well) and incubated for 48 h at 37° C., 5% CO2, 95% humidity. Compounds were added and incubated 30 min followed by IL-13 as trigger. After 30 min incubation, cells were lysed and pSTAT6 determined by Fastscan phospho-stat6 (Tyr641) sandwich ELISA kit (cell signaling). Inhibitors were tested at 11 consecutive […] dilutions starting from 10 μM (10 μM-40 pM) in duplicate. Calculation of IC50 data, curves and QC analysis were made using Excel tools and GraphPadPrism software. QC criteria parameters: Z′≥0.35, Hill Slope range 0.5 to 5, S:B>2.

Consider `Cc1nn(-c2cc3c(cc2OC(F)F)NCCO3)c2cc(-c3cnn4cccnc34)ncc12` [Example 1, 6-(difluoromethoxy)-7-(3-methyl-6-(pyrazolo[1,5-a]pyrimidin-3-yl)-1H-pyrazolo[4,3-c]pyridin-1-yl)-3,4-dihydro-2H-benzo[b][1,4]oxazine], for which the IC50 (in general, the concentration that inhibits the measured activity by half) was 5.01 to 50.1 nM.
In turn, `COc1cc2c(cc1-n1nc(C)c3cnc(-c4cnn5cccnc45)cc31)CN(S(C)(=O)=O)C2` [Example 2, 1-(6-methoxy-2-(methylsulfonyl)isoindolin-5-yl)-3-methyl-6-(pyrazolo[1,5-a]pyrimidin-3-yl)-1H-pyrazolo[4,3-c]pyridine] showed an IC50 of 5.01 to 50.1 nM.
Regarding `COc1cc2c(cc1-n1nc(C)c3cnc(-c4cnn5cccnc45)cc31)CCCC(=O)N2` [Example 3, 8-methoxy-7-(3-methyl-6-(pyrazolo[1,5-a]pyrimidin-3-yl)-1H-pyrazolo[4,3-c]pyridin-1-yl)-1,3,4,5-tetrahydro-2H-benzo[b]azepin-2-one], the IC50 is 5.01 to 50.1 nM.
`COc1cc2c(cc1-n1nc(C)c3cnc(-c4cnn5cccnc45)cc31)CCC(=O)N2` [Example 4, 7-methoxy-6-(3-methyl-6-(pyrazolo[1,5-a]pyrimidin-3-yl)-1H-pyrazolo[4,3-c]pyridin-1-yl)-3,4-dihydroquinolin-2(1H)-one] had a concentration for half-maximal inhibition (IC50) of 5.01 to 50.1 nM.
Regarding `COc1cc2c(cc1-n1nc(C)c3cnc(-c4cnn5cccnc45)cc31)C(=O)CCN2` [Example 5, 7-methoxy-6-(3-methyl-6-(pyrazolo[1,5-a]pyrimidin-3-yl)-1H-pyrazolo[4,3-c]pyridin-1-yl)-2,3-dihydroquinolin-4(1H)-one], the IC50 is 5.01 to 50.1 nM.
Consider `COc1cc2c(cc1-n1nc(C)c3cnc(-c4cnn5cccnc45)cc31)SCCN2` [Example 6, 6-methoxy-7-(3-methyl-6-(pyrazolo[1,5-a]pyrimidin-3-yl)-1H-pyrazolo[4,3-c]pyridin-1-yl)-3,4-dihydro-2H-benzo[b][1,4]thiazine], for which the IC50 is less than 5.01 nM.
`COc1cc2c(cc1-n1nc(C)c3cnc(-c4cnn5cccnc45)cc31)SCC(=O)N2` [Example 7, 6-methoxy-7-(3-methyl-6-(pyrazolo[1,5-a]pyrimidin-3-yl)-1H-pyrazolo[4,3-c]pyridin-1-yl)-2H-benzo[b][1,4]thiazin-3(4H)-one] gave a concentration for half-maximal inhibition (IC50) of 5.01 to 50.1 nM.
On to `COc1cc2c(cc1-n1nc(C)c3cnc(-c4cnn5cccnc45)cc31)S(=O)(=O)CCN2` [Example 8, 6-methoxy-7-(3-methyl-6-(pyrazolo[1,5-a]pyrimidin-3-yl)-1H-pyrazolo[4,3-c]pyridin-1-yl)-3,4-dihydro-2H-benzo[b][1,4]thiazine 1,1-dioxide], for which the IC50 is 5.01 to 50.1 nM.
Take `COc1cc2c(cc1-n1nc(C)c3cnc(-c4cnn5cccnc45)cc31)OCCCN2` [Example 9, 7-methoxy-8-(3-methyl-6-(pyrazolo[1,5-a]pyrimidin-3-yl)-1H-pyrazolo[4,3-c]pyridin-1-yl)-2,3,4,5-tetrahydrobenzo[b][1,4]oxazepine]: the IC50 is 5.01 to 50.1 nM.
Under `COc1cc2c(cc1-n1nc(C)c3cnc(-c4cnn5cccnc45)cc31)CC(=O)N2` [Example 10, 6-methoxy-5-(3-methyl-6-(pyrazolo[1,5-a]pyrimidin-3-yl)-1H-pyrazolo[4,3-c]pyridin-1-yl)indolin-2-one] stands 5.01 to 50.1 nM; under `COc1cc2c(cc1-n1nc(C)c3cnc(-c4cnn5cccnc45)cc31)OC(F)(F)C(=O)N2` [Example 11, 2,2-difluoro-6-methoxy-7-(3-methyl-6-(pyrazolo[1,5-a]pyrimidin-3-yl)-1H-pyrazolo[4,3-c]pyridin-1-yl)-2H-benzo[b][1,4]oxazin-3(4H)-one], 5.01 to 50.1 nM.
`COc1cc2c(cc1-n1nc(C)c3cnc(-c4cnn5cccnc45)cc31)CN(C)C(=O)N2` [Example 12, 7-methoxy-3-methyl-6-(3-methyl-6-(pyrazolo[1,5-a]pyrimidin-3-yl)-1H-pyrazolo[4,3-c]pyridin-1-yl)-3,4-dihydroquinazolin-2(1H)-one] had an IC50 of 50.1 to 501 nM.
Under `COc1cc2c(cc1-n1nc(C(=O)NC3CN(CC4CCOCC4)C3)c3cnc(-c4cnn5cccnc45)cc31)OCCN2` [Example 13] stands 5.01 to 50.1 nM; under `COc1cc2c(cc1-n1nc(C(=O)NCCCN3CCC(F)(F)CC3)c3cnc(-c4cnn5cccnc45)cc31)OCCN2` [Example 14, N-(3-(4,4-difluoropiperidin-1-yl)propyl)-1-(6-methoxy-3,4-dihydro-2H-benzo[b][1,4]oxazin-7-yl)-6-(pyrazolo[1,5-a]pyrimidin-3-yl)-1H-pyrazolo[4,3-c]pyridine-3-carboxamide], 5.01 to 50.1 nM.
`COc1cc2c(cc1-n1nc(C(=O)NCCN3CCC4(CCC(=O)O4)CC3)c3cnc(-c4cnn5cccnc45)cc31)OCCN2` [Example 15, 1-(6-methoxy-3,4-dihydro-2H-benzo[b][1,4]oxazin-7-yl)-N-(2-(2-oxo-1-oxa-8-azaspiro[4.5]decan-8-yl)ethyl)-6-(pyrazolo[1,5-a]pyrimidin-3-yl)-1H-pyrazolo[4,3-c]pyridine-3-carboxamide]: the IC50 was less than 5.01 nM.
In the case of `COc1cc2c(cc1-n1nc(C(=O)NCCCN(C)C)c3cnc(-c4cnn5cccnc45)cc31)SCCN2` [Example 16, N-(3-(dimethylamino)propyl)-1-(6-methoxy-3,4-dihydro-2H-benzo[b][1,4]thiazin-7-yl)-6-(pyrazolo[1,5-a]pyrimidin-3-yl)-1H-pyrazolo[4,3-c]pyridine-3-carboxamide], the IC50 was less than 5.01 nM.
For the compound `COc1cc2c(cc1-n1nc(C(=O)NC3CN(C)C3)c3cnc(-c4cnn5cccnc45)cc31)SCCN2` [Example 17, 1-(6-methoxy-3,4-dihydro-2H-benzo[b][1,4]thiazin-7-yl)-N-(1-methylazetidin-3-yl)-6-(pyrazolo[1,5-a]pyrimidin-3-yl)-1H-pyrazolo[4,3-c]pyridine-3-carboxamide], the IC50 is 5.01 to 50.1 nM.
For `COc1cc2c(cc1-n1nc(C(=O)NC[C@@H]3CN(C)CCO3)c3cnc(-c4cnn5cccnc45)cc31)SCCN2` [Example 18, (R)-1-(6-methoxy-3,4-dihydro-2H-benzo[b][1,4]thiazin-7-yl)-N-((4-methylmorpholin-2-yl)methyl)-6-(pyrazolo[1,5-a]pyrimidin-3-yl)-1H-pyrazolo[4,3-c]pyridine-3-carboxamide], the IC50 was 5.01 to 50.1 nM.
For the compound `COc1cc2c(cc1-n1nc(NC(=O)OCCCN3CCOC(=O)C3)c3cnc(-c4cnn5cccnc45)cc31)SCCN2` [Example 19, 3-(2-oxomorpholino)propyl (1-(6-methoxy-3,4-dihydro-2H-benzo[b][1,4]thiazin-7-yl)-6-(pyrazolo[1,5-a]pyrimidin-3-yl)-1H-pyrazolo[4,3-c]pyridin-3-yl)carbamate], the IC50 is 5.01 to 50.1 nM.
The compound `COc1cc2c(cc1-n1nc(NC(=O)OCCN(C)C3CCOC3=O)c3cnc(-c4cnn5cccnc45)cc31)SCCN2` (stereo not drawn) [Example 20, 2-(methyl(2-oxotetrahydrofuran-3-yl)amino)ethyl (1-(6-methoxy-3,4-dihydro-2H-benzo[b][1,4]thiazin-7-yl)-6-(pyrazolo[1,5-a]pyrimidin-3-yl)-1H-pyrazolo[4,3-c]pyridin-3-yl)carbamate] had an IC50 of 5.01 to 50.1 nM.
In turn, `COc1cc2c(cc1-n1nc(C(=O)NC[C@@H]3CN(C)CCO3)c3cnc(-c4cnn5cccnc45)cc31)SCC(=O)N2` [Example 21, (R)-1-(6-methoxy-3-oxo-3,4-dihydro-2H-benzo[b][1,4]thiazin-7-yl)-N-((4-methylmorpholin-2-yl)methyl)-6-(pyrazolo[1,5-a]pyrimidin-3-yl)-1H-pyrazolo[4,3-c]pyridine-3-carboxamide] had an IC50 of 5.01 to 50.1 nM.
Compound `COc1cc2c(cc1-n1nc(C(=O)NC[C@H]3CN(C)CCO3)c3cnc(-c4cnn5cccnc45)cc31)SCC(=O)N2` [Example 22, (S)-1-(6-methoxy-3-oxo-3,4-dihydro-2H-benzo[b][1,4]thiazin-7-yl)-N-((4-methylmorpholin-2-yl)methyl)-6-(pyrazolo[1,5-a]pyrimidin-3-yl)-1H-pyrazolo[4,3-c]pyridine-3-carboxamide] gave an IC50 of 5.01 to 50.1 nM.
Under `COc1cc2c(cc1-n1nc(C(=O)NCCCN(C)C)c3cnc(-c4cnn5cccnc45)cc31)SCC(=O)N2` [Example 23, N-(3-(dimethylamino)propyl)-1-(6-methoxy-3-oxo-3,4-dihydro-2H-benzo[b][1,4]thiazin-7-yl)-6-(pyrazolo[1,5-a]pyrimidin-3-yl)-1H-pyrazolo[4,3-c]pyridine-3-carboxamide] stands 5.01 to 50.1 nM.
For the compound `COc1cc2c(cc1-n1nc(C(=O)NCCCN(C)C)c3cnc(-c4cnn5cccnc45)cc31)CCC(=O)N2` [Example 24, N-(3-(dimethylamino)propyl)-1-(7-methoxy-2-oxo-1,2,3,4-tetrahydroquinolin-6-yl)-6-(pyrazolo[1,5-a]pyrimidin-3-yl)-1H-pyrazolo[4,3-c]pyridine-3-carboxamide], the IC50 was 50.1 to 501 nM.
The compound `COc1cc2c(cc1-n1nc(C(=O)NCCCN(C)C)c3cnc(-c4cnn5cccnc45)cc31)CCCN2` [Example 25, N-(3-(dimethylamino)propyl)-1-(7-methoxy-1,2,3,4-tetrahydroquinolin-6-yl)-6-(pyrazolo[1,5-a]pyrimidin-3-yl)-1H-pyrazolo[4,3-c]pyridine-3-carboxamide] had a 50% inhibitory concentration (IC50) of 5.01 to 50.1 nM.
Compound `CNc1nn(-c2cc3c(cc2OC)NC(=O)CC3)c2cc(-c3cnn4cccnc34)ncc12` [Example 26, 7-methoxy-6-(3-(methylamino)-6-(pyrazolo[1,5-a]pyrimidin-3-yl)-1H-pyrazolo[4,3-c]pyridin-1-yl)-3,4-dihydroquinolin-2(1H)-one] gave an IC50 of 5.01 to 50.1 nM.
Take `COc1cc2c(cc1-n1nc(NC(=O)OCCN(C)C)c3cnc(-c4cnn5cccnc45)cc31)CCC(=O)N2` [Example 27, 2-(dimethylamino)ethyl (1-(7-methoxy-2-oxo-1,2,3,4-tetrahydroquinolin-6-yl)-6-(pyrazolo[1,5-a]pyrimidin-3-yl)-1H-pyrazolo[4,3-c]pyridin-3-yl)carbamate]: the IC50 is 5.01 to 50.1 nM.

The values above are taken from patent US20260085077A1, “HETEROCYCLIC DERIVATIVES AS JANUS KINASE INHIBITORS” (CHIESI FARMACEUTICI S.P.A., priority 2022, published 2026).
